Drawing on article PMC6934184, “Selective DNA-PKcs inhibition extends the therapeutic index of localized radiotherapy and chemotherapy” (The Journal of Clinical Investigation, 2019), this text covers inhibition for one molecule.

The assay concerns the target T1, MAPK13 (p38 delta) (Homo sapiens, UniProt O15264).
T1 construct: purchased Thermo Fisher Scientific (Life Technologies) SelectScreen
The assay is described as follows: SelectScreen Z'LYTE. The class given is biochemical. The procedure, abridged:
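SelectScreen broad panel; activity (Z'LYTE, Adapta) plus binding formats. ATP: Km app for CSF1R Z'LYTE; 10 for CAMK1 Adapta. Readout = % per kinase.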

T1 sequence (O15264 whole entry): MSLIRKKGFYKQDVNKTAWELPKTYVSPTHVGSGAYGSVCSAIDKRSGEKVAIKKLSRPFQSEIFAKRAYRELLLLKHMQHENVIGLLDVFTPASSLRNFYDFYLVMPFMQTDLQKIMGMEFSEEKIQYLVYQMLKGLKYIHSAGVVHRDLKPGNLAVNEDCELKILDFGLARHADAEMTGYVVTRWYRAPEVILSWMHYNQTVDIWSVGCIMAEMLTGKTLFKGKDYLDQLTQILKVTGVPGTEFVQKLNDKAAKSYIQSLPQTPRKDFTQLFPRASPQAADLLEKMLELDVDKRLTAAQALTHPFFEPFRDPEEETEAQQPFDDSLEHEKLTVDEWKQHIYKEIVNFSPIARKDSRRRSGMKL

`CN(C(=O)CN1CCOCC1)c1ccc2sc3c(-c4cccc5c(=O)cc(N6CC7CCC(C6)O7)oc45)cccc3c2c1` [NU5455] showed an inhibition at 1 µM of 5.8%.
